Measured values published in patent EP3884948A1, “CATHEPSIN INHIBITORS AND USES THEREOF” (Ecole Polytechnique Fédérale de Lausanne (EPFL), priority 2020, dated 2021).

Tests used:
[1] = tested on: CTSS-His-WT and CTSS-His-Y132D; test: Mass spectrometry of peptide cleavage by purified CTSS; format: biochemical, human; details: after 15 minutes of incubation with purified CTSS-His-WT and CTSS-His-Y132D
Procedure: (§1) For mass spectrometry experiments, CTSS-His WT and Y132D were activated by incubation at 10 µg/mL in Assay buffer (50 mM NaOAc, 5 mM DTT, 250 mM NaCl, pH 4.5) at 37°C for 90 minutes. 2.5 µg of activated CTSS-His WT and Y132D were then co-incubated with 5 ug of peptide in Assay buffer (final volume: 300 µl) at 37°C for 15 or 30 minutes. The reaction was stopped by addition of 50 µM E64 (Selleckchem, cat #S7379) following the co-incubation. Control reactions were prepared by incubating 5 µg of peptide in 300 µl of Assay buffer at 37°C for 15 or 30 minutes. Control and digested peptides were acidified, desalted on C18 StageTips (Rappsilber et al., 2007) and dried by vacuum centrifugation. Samples were resuspended in LC-MS solvent A (2% Acetonitrile, 0.1% TFA) and equivalent sample amounts (3 to 10 ng) injections were performed. Nano-flow separations were achieved on a Dionex Ultimate 3000 RSLC nano UPLC system (Thermo Fischer Scientific) on-line connected with a Q-Exactive Mass-Spectrometer (Thermo Fischer Scientific). Samples were first trapped on a capillary C18 pre-column (Acclaim PepMap™ 100, 75 µm x 2cm) and then separated on a C18 home-made capillary column (ReproSil-Pur C18 AQ 1.9 µm; 50 cm x 75 µm ID) at 250 nl/min over a biphasic 60 min gradient ranging from 99% of solvent A (2% Acetonitrile and 0.1% Formic acid) to 90% of solvent B (90% Acetonitrile and 0.1% Formic acid). The mass spectrometer was operated in Data Dependent acquisition mode using a scan range of 200 to 1500 m/z. MS resolution was set to 70K and MS2 resolution to 17,5K. An isolation window of 2 m/z was used when selecting ions to fragment by HCD and the Normalized Collision Energy (NCE) was set to 27. Data were inspected and dedicated traces extracted with Xcalibur Qual Browser software (Thermo Fischer Scientific). The peptides used were the following: CD74 ([…]) (SEQ ID NO: 16), HSPA1/8 ([…]) (SEQ ID NO: 17), OVA ([…]) (SEQ ID NO: 18), HA ([…]) (SEQ ID NO: 19).

[2] = target: T1, CTSS-His-WT and CTSS-His-Y132D (Homo sapiens, UniProt P25774); test: as above; format: biochemical; details: incubated with purified CTSS-His-WT for 30 minutes
T1 construct: made in house; host or cells: HEK293
Procedure: as §1

| Sequence | peptides cleaved [1] | cleavage by CTSS [2] |
| --- | --- | --- |
| EEIERMVQEAEKYKAEDEVQ [SEQ ID NO: 17] | 35-40% |  |
| IKVYLPRMKMEEKYNLTSVL [SEQ ID NO: 18] |  | can cleave |
| NVKNLYEKVKSQLKNNAKEI [SEQ ID NO: 19] |  | can cleave |
| QLENLRMKLPKPPKPVSKMR [SEQ ID NO: 16] | completely cleaved |  |
